Values after ≈ are worked out from the molar mass of the structure shown. Like-named read-outs stand apart in the source and are kept apart here. Starred links: 1 amine or outer side, 2 acyl side, 3 side chain; linkers in the order of their positions; H or OH if unused. Positions of bridges follow the written chain, without caps; N, C: chain ends. Residues, ends and D or L forms follow the SMILES beside them. *: point of attachment. C20 diacid = O=C(O)CCCCCCCCCCCCCCCCCCC(=O)*; γGlu = O=C(O)[C@H](CCC(=O)[*:2])N[*:1]; AEEA = NCCOCCOCC(=O)O
Experiments:
[1] = target: T1, human calcitonin receptor (Homo sapiens, UniProt P30988); test: Assay (II)a functional CRE-luciferase assay, human calcitonin receptor; type: cell-based
T1 construct: expressed in transfected cells; host or cells: BHK570
T1 sequence (P30988 25-474): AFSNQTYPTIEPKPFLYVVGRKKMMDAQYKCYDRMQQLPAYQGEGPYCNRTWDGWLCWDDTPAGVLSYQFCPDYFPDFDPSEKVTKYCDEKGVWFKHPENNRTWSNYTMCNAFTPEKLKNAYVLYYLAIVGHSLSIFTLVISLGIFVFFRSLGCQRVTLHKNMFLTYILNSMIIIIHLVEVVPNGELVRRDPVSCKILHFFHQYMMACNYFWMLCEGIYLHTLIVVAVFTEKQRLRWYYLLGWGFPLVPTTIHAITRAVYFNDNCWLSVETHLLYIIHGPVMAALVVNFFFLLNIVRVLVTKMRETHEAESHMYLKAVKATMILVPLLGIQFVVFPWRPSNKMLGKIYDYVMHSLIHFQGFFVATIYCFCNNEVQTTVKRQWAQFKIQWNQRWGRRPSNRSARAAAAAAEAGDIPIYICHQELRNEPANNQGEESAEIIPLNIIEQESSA

[2] = target: T2, human amylin receptor (amylin 3(a) receptor: human calcitonin receptor + RAMP-3) (Homo sapiens, UniProt O60896+P30988); test: Assay (II)a functional CRE-luciferase assay, human amylin receptor; type: cell-based
T2 construct: expressed in transfected cells; host or cells: BHK570
T2 sequence (P30988 25-474): T1 sequence (P30988 25-474)
T2 sequence (O60896 24-148 partner): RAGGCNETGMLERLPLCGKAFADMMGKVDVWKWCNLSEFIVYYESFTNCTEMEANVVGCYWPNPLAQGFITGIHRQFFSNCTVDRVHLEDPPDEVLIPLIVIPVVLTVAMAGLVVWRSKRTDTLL

[3] = Assay (IV) determination of solubility; type: physicochemical
How it was run: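 Eight 100 mM buffers (glycylglycine pH 3.0–5.0, bistrispropane pH 6.0–8.0) each received an equal volume of polypeptide dissolved in water at ~500 nmol/ml. Soluble polypeptide was measured by HPLC following 18 hours at room temperature and centrifugation.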

[4] = Table 7, human calcitonin (CTa) receptor
[5] = Table 2, BHK amylin 3(a)-receptor/CRE-luc cells
[6] = bistrispropane buffer, pH 6, pH 6.0, read-out: Solubility pH 6.0
[7] = bistrispropane buffer, pH 6.5, pH 6.5, read-out: Solubility pH 6.5
[8] = bistrispropane buffer, pH 7, pH 7.0, 18 hours at room temperature, Table 3, read-out: Solubility pH 7.0
[9] = bistrispropane buffer, pH 7, pH 7.0, read-out: Solubility pH 7.0
[10] = bistrispropane buffer, pH 7.5, pH 7.5, read-out: Solubility pH 7.5
[11] = bistrispropane buffer, pH 8, pH 8.0, read-out: Solubility pH 8.0
[12] = glycylglycine buffer, pH 3, pH 3.0, read-out: Solubility pH 3.0
[13] = glycylglycine buffer, pH 4, pH 4.0, 18 hours at room temperature, Table 2, read-out: Solubility pH 4.0
[14] = glycylglycine buffer, pH 4, pH 4.0, read-out: Solubility pH 4.0
[15] = glycylglycine buffer, pH 5, pH 5.0, read-out: Solubility pH 5.0
[16] = Table 3, BHK amylin 3(a)-receptor/CRE-luc cells

EC50 [1, 4] [nM]	EC50 [2, 5] [nM]	solubility at 18 h [3, 6] [µM]	solubility at 18 h [3, 7] [µM]	solubility at 18 h [3, 8] [µM]	solubility at 18 h [3, 9] [µM]	solubility at 18 h [3, 10] [µM]	solubility at 18 h [3, 11] [µM]	solubility at 18 h [3, 12] [µM]	solubility at 18 h [3, 13] [µM]	solubility at 18 h [3, 14] [µM]	solubility at 18 h [3, 15] [µM]	EC50 [2, 16] [nM]	Compound	other results
0.259	0.179	> 200	> 200	> 200	> 200	> 200	> 200	> 200	> 200	> 200	> 200	–	CC[C@H](C)[C@H](NC(=O)[C@@H]1CCCN1C(=O)CNC(=O)[C@H](Cc1ccccc1)NC(=O)[C@H](CC(N)=O)NC(=O)[C@H](CC(N)=O)NC(=O)[C@H](CO)NC(=O)[C@H](CO)NC(=O)[C@H](Cc1cnc[nH]1)NC(=O)[C@H](Cc1cnc[nH]1)NC(=O)[C@H](CC(C)C)NC(=O)[C@H](Cc1ccccc1)NC(=O)[C@H](CCC(=O)O)NC(=O)[C@H](C)NC(=O)[C@H](CC(C)C)NC(=O)[C@H](CCCNC(=N)N)NC(=O)[C@H](CCC(N)=O)NC(=O)[C@@H](NC(=O)[C@H](C)NC(=O)[C@@H]1CSSC[C@H](NC(=O)CC[C@H](NC(=O)CCCCCCCCCCCCCCCCCCC(=O)O)C(=O)O)C(=O)N[C@@H](CC(N)=O)C(=O)N[C@@H]([C@@H](C)O)C(=O)N[C@@H](C)C(=O)N[C@@H]([C@@H](C)O)C(=O)N1)[C@@H](C)O)C(=O)N[C@@H](CC(C)C)C(=O)N1CCC[C@H]1C(=O)N1CCC[C@H]1C(=O)N[C@H](C(=O)N[C@@H](CC(N)=O)C(=O)N[C@H](C(=O)NCC(=O)N[C@@H](CO)C(=O)N[C@@H](CC(N)=O)C(=O)N[C@H](C(=O)N[C@@H](Cc1ccc(O)cc1)C(N)=O)[C@@H](C)O)C(C)C)[C@@H](C)O [Example 28, N-alpha-[(S)-4-Carboxy-4-(19-carboxynonadecanoylamino)butyryl]-[des1,Glu14,His17]-pramlintide] ({C20 diacid-γGlu}-CNTATCATQRLAEFLHHSSNNFGPILPPTNVGSNTY-NH2; disulfide 1-6)	–
0.085	0.071	–	–	–	–	–	–	–	–	–	–	0.071	CC[C@H](C)[C@H](NC(=O)[C@@H]1CCCN1C(=O)CNC(=O)[C@H](Cc1ccccc1)NC(=O)[C@H](CC(N)=O)NC(=O)[C@H](CCCCN)NC(=O)[C@H](CO)NC(=O)[C@H](CO)NC(=O)[C@H](Cc1c[nH]cn1)NC(=O)[C@H](Cc1c[nH]cn1)NC(=O)[C@H](CC(C)C)NC(=O)[C@H](Cc1ccccc1)NC(=O)[C@H](CCC(=O)O)NC(=O)[C@H](C)NC(=O)[C@H](CC(C)C)NC(=O)[C@H](CCCNC(=N)N)NC(=O)[C@H](CCC(N)=O)NC(=O)[C@@H](NC(=O)[C@H](C)NC(=O)[C@@H]1CSSC[C@H](NC(=O)[C@H](CCCCN)NC(=O)COCCOCCNC(=O)COCCOCCNC(=O)CC[C@H](NC(=O)CCCCCCCCCCCCCCCCCCC(=O)O)C(=O)O)C(=O)N[C@@H](CC(N)=O)C(=O)N[C@@H]([C@@H](C)O)C(=O)N[C@@H](C)C(=O)N[C@@H]([C@@H](C)O)C(=O)N1)[C@@H](C)O)C(=O)N[C@@H](CC(C)C)C(=O)N1CCC[C@H]1C(=O)N1CCC[C@H]1C(=O)N[C@H](C(=O)N[C@@H](CC(N)=O)C(=O)N[C@H](C(=O)NCC(=O)N[C@@H](CO)C(=O)N[C@@H](CC(N)=O)C(=O)N[C@H](C(=O)N1CCC[C@H]1C(N)=O)[C@@H](C)O)C(C)C)[C@@H](C)O [Example 168, N-alpha-[2-(2-{2-[2-(2-{2-[(S)-4-Carboxy-4-(19-carboxyheptadecanoylamino)butyrylamino]ethoxy}ethoxy)acetylamino]ethoxy}ethoxy)acetyl]-[Glu14,His17,Lys21,Pro37]-pramlintide] ({C20 diacid-γGlu-AEEA-AEEA}-KCNTATCATQRLAEFLHHSSKNFGPILPPTNVGSNTP-NH2; disulfide 2-7)	EC50 ([1]; Table 11, read-out: CTa receptor human EC50): 0.085 nM; EC50 ([2]; Table 4): 0.071 nM; EC50 ([2]; Table 6, human amylin receptor): 0.071 nM; EC50 ([2]; Table 7, human amylin receptor): 0.071 nM; EC50 ([2]; Table 11): 0.071 nM; solubility ([3]; pH 3, pH 3.0, read-out: Solubility pH 3.0): > 200 µM; solubility ([3]; pH 4, pH 4.0, 18 hours at room temperature, Table 2, read-out: Solubility pH 4.0): > 200 µM; solubility ([3]; pH 4, pH 4.0, read-out: Solubility pH 4.0): > 200 µM; solubility ([3]; pH 5, pH 5.0, read-out: Solubility pH 5.0): > 200 µM; solubility ([3]; pH 6, pH 6.0, read-out: Solubility pH 6.0): > 200 µM; solubility ([3]; pH 6.5, pH 6.5, read-out: Solubility pH 6.5): > 200 µM; solubility ([3]; pH 7, pH 7.0, 18 hours at room temperature, Table 3, read-out: Solubility pH 7.0): > 200 µM; solubility ([3]; pH 7, pH 7.0, read-out: Solubility pH 7.0): > 200 µM; solubility ([3]; pH 7.5, pH 7.5, read-out: Solubility pH 7.5): > 200 µM; solubility ([3]; pH 8, pH 8.0, read-out: Solubility pH 8.0): > 200 µM
0.526	0.313	> 200	> 200	> 200	> 200	> 200	> 200	> 200	> 200	> 200	> 200	–	CC[C@H](C)[C@H](NC(=O)[C@@H]1CCCN1C(=O)CNC(=O)[C@H](Cc1ccccc1)NC(=O)[C@H](CC(N)=O)NC(=O)[C@H](CC(N)=O)NC(=O)[C@H](CO)NC(=O)[C@H](CO)NC(=O)[C@H](Cc1c[nH]cn1)NC(=O)[C@H](CCCNC(=N)N)NC(=O)[C@H](CC(C)C)NC(=O)[C@H](Cc1ccccc1)NC(=O)[C@H](CCC(=O)O)NC(=O)[C@H](C)NC(=O)[C@H](CC(C)C)NC(=O)[C@H](CCCNC(=N)N)NC(=O)[C@H](CCC(N)=O)NC(=O)[C@@H](NC(=O)[C@H](C)NC(=O)[C@@H]1CSSC[C@H](NC(=O)[C@H](CCCNC(=N)N)NC(=O)[C@H](CCC(=O)O)NC(=O)[C@H](CCC(=O)O)NC(=O)CC[C@H](NC(=O)CCCCCCCCCCCCCCCCCCC(=O)O)C(=O)O)C(=O)N[C@@H](CC(N)=O)C(=O)N[C@@H]([C@@H](C)O)C(=O)N[C@@H](C)C(=O)N[C@@H]([C@@H](C)O)C(=O)N1)[C@@H](C)O)C(=O)N[C@@H](CC(C)C)C(=O)N1CCC[C@H]1C(=O)N1CCC[C@H]1C(=O)N[C@H](C(=O)N[C@@H](CC(N)=O)C(=O)N[C@H](C(=O)NCC(=O)N[C@@H](CO)C(=O)N[C@@H](CC(N)=O)C(=O)N[C@H](C(=O)N1CCC[C@H]1C(N)=O)[C@@H](C)O)C(C)C)[C@@H](C)O [Example 155, N-alpha-[(S)-4-Carboxy-4-(19-carboxynonadecanoylamino)butyryl]-Glu-Glu-[Arg1,Glu14,Arg17,Pro37]-pramlintide] ({C20 diacid-γGlu}-EERCNTATCATQRLAEFLRHSSNNFGPILPPTNVGSNTP-NH2; disulfide 4-9 (inferred); C-terminus assumed)	–
0.198	–	34 (≈ 150 µg/mL)	12 (≈ 52.8 µg/mL)	104 (≈ 458 µg/mL)	104 (≈ 458 µg/mL)	122 (≈ 537 µg/mL)	129 (≈ 568 µg/mL)	179 (≈ 788 µg/mL)	–	80 (≈ 352 µg/mL)	1 (≈ 4.4 µg/mL)	0.313	CC[C@H](C)[C@H](NC(=O)[C@@H]1CCCN1C(=O)CNC(=O)[C@H](Cc1ccccc1)NC(=O)[C@H](CO)NC(=O)[C@H](CO)NC(=O)[C@H](CO)NC(=O)[C@H](CO)NC(=O)[C@H](CCCNC(=N)N)NC(=O)[C@H](Cc1c[nH]cn1)NC(=O)[C@H](CC(C)C)NC(=O)[C@H](Cc1ccccc1)NC(=O)[C@H](CCC(=O)O)NC(=O)[C@H](C)NC(=O)[C@H](CC(C)C)NC(=O)[C@H](CCCNC(=N)N)NC(=O)[C@H](CCC(N)=O)NC(=O)[C@@H](NC(=O)[C@H](C)NC(=O)[C@@H]1CSSC[C@H](NC(=O)[C@H](Cc2c[nH]cn2)NC(=O)CC[C@H](NC(=O)CCCCCCCCCCCCCCCCCCC(=O)O)C(=O)O)C(=O)NCC(=O)N[C@@H]([C@@H](C)O)C(=O)N[C@@H](C)C(=O)N[C@@H]([C@@H](C)O)C(=O)N1)[C@@H](C)O)C(=O)N[C@@H](CC(C)C)C(=O)N1CCC[C@H]1C(=O)N1CCC[C@H]1C(=O)N[C@H](C(=O)N[C@@H](CCC(=O)O)C(=O)N[C@H](C(=O)NCC(=O)N[C@@H](CO)C(=O)N[C@@H](CCC(=O)O)C(=O)N[C@H](C(=O)N[C@@H](Cc1ccc(O)cc1)C(N)=O)[C@@H](C)O)C(C)C)[C@@H](C)O [Example 16, N-alpha-[(S)-4-Carboxy-4-(19-carboxynonadecanoylamino)butyryl]-[His1,Gly3,Glu14,His17,Arg18,Ser21,Ser22,Glu31,Glu35]-pramlintide] ({C20 diacid-γGlu}-HCGTATCATQRLAEFLHRSSSSFGPILPPTEVGSETY-NH2; disulfide 2-7 (inferred))	–
